The test system of one assay is C. freundii (NDM-1+). As to the kind of experiment: Microdilution MIC and MBC assay, FICI. It is filed as cell-based. Conditions: Bi(III) compound at 32 μg mL^−1, C. feudii (NDM-1+). (In general: Dilution methods test growth across graded concentrations, often in twofold steps.)
A further assay concerns E. coli (NDM-1+). As to the kind of experiment: Murine peritonitis infection model. It is filed as in vivo, BALB/c mice. Conditions: MER (5 mg kg^−1) co-administered with CBS (20 mg kg^−1), i.p., day 4 post infection. Here is the method: FIG. 15 is a survival curve showing efficacies in a murine peritonitis infection model. BALB/c mice were infected by a lethal dose of E. coli clinical isolate (NDM-1) via i.p. injection and treated with one dose and 4 h post infection, followed by twice-daily treatment via i.p. injection. Five groups of mice were treated with MER (5 mg kg^−1), CBS (20 mg kg^−1), the combination of MER (5 mg kg^−1) and CBS (20 mg kg^−1), CBS (20 mg kg^−1, in the absence of bacteria) and PBS, respectively. P<0.001, Mantel-Cox test.
Briefly, an overnight culture of E. coli (NDM-1^+) was performed 1:250 dilution in 50 mL LB broth and re-grew to about OD of 0.3 in a 250-mL flask after 2.5 hrs shaking at 37° C., 250 rpm. The resulting bacterial pellets were collected and washed by PBS three times for further use. For bacterial infection, mice (female BALB/c strain, 6-8 weeks of age, 18-22 g of weight) were induced intraperitoneally (i.p.) with a dose of 10^5 CFU bacteria in a 400 μL aliquot of PBS supplemented with 2% mucin. 4 groups of mice were i.p. administered 4 hrs post-infection with a 100 μL aliquot of PBS, MER, CBS and a combination of MER and CBS, respectively. Body weights and mice survival were monitored for endpoint until day 4 post infection.

A further assay concerns the target NDM-1 (Klebsiella pneumoniae, UniProt C7C422). As to the kind of experiment: Zn(II) supplementation assay. It is filed as biochemical. Conditions: Bi-NDM-1 from apo-NDM-1 and CBS; ZnSO4 up to 2 molar equivalents; apo-NDM-1 + 2 eq Zn = 1. As for the experimental part: To investigate whether enzyme inhibition can be reversed, enzyme activities of apo-NDM-1 and Bi-NDM-1 were compared with the supplementation of Zn(II). Bi-NDM-1 (50 nM) was prepared by pre-incubation of apo-NDM-1 with CBS for 2 h at 25° C. and the bound Bi was verified using ICP-MS. The above protein solutions were mixed with ZnSO4 at concentration up to 2 molar equivalents to NDM-1 and 100 μM MER. The change in absorbance at 300 nm was monitored in a 1 cm quartz cuvette using Varian Cary® 50 UV-visible spectrophotometer at 25° C. for reaction rate calculations. Reaction rate of apo-NDM-1 with addition of 2 molar equivalents of ZnSO4 was normalized to be 1. […]. […] To confirm this, the metal contents of both Zn(II) and Bi(III) were monitored by inductively-coupled plasma mass spectrometry (ICP-MS) as described below.

Another assay concerns E. coli (IMP-4+). As to the kind of experiment: Microdilution MIC and MBC assay, FICI. It is filed as cell-based. Conditions: Bi(III) compound at 32 μg mL−1, E. coli (IMP-4+).
A further assay concerns E. coli cells (NDM+). As to the kind of experiment: Resistance study, mutation frequency and MPC. It is filed as cell-based. The source says:
Given the very notion of MIC, all susceptible bacterial cells will be suppressed or killed by a dose above it. However, bacterial population is often large; an infection will likely contain first-step mutants with lowed susceptibility. Thus, the dose of compounds at MIC will adversely amplify the population of those less-susceptible mutants.^26 Thus mutant prevention concentration (MPC), defined as a compound concentration that suppresses the growth of first-step resistant mutant in large quantity of susceptible bacterial population, together with mutant prevention index (MPI=MPC/MIC), is introduced to estimate the mutant prevention ability of exemplary compound combination.
For a typical test, E. coli cells (NDM^+) at 1˜2×10^10 CFU were spread onto LB agar containing combinations of MER and CBS at identical concentrations. All the plates were incubated at 37° C. Upon incubation for 48 hrs, up to 4 colonies were picked and re-cultured from any plates with observable colonies, followed by the measurement of their MIC values. Any MICs of MER that were higher than the original values (16 μg mL^−1) were determined as mutant colony. The concentration that restricted the growth of mutant colonies was determined as MPC.

A further assay concerns E. coli (VIM-2+). As to the kind of experiment: Microdilution MIC and MBC assay, FICI. Conditions: Bi(III) compound at 32 μg mL−1, E. coli (VIM-2+). It is filed as cell-based.

Chain of NDM-1 (C7C422 whole entry, looked up): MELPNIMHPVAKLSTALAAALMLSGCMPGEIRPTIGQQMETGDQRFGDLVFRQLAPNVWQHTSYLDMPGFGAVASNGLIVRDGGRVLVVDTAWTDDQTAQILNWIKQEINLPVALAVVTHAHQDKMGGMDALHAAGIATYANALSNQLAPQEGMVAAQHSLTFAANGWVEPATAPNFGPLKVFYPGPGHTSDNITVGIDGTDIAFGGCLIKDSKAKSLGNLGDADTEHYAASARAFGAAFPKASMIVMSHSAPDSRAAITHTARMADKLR

As to `O=C([O-])CC([O-])(CC(=O)[O-])C(=O)[O-].O=C([O-])CC([O-])(CC(=O)[O-])C(=O)[O-].[Bi+3].[Bi+3].[K+]` [Complex 10, colloidal bismuth subcitrate], the figures for the “MBC of MER with Bi(III) compound” value with C. freundii (NDM-1+), with E. coli (IMP-4+) and in the assay on E. coli (VIM-2+) were 1 µg/mL, 8 µg/mL and 1 µg/mL, respectively. The “MIC of MER with Bi(III) compound” value in the assay on C. freundii (NDM-1+) came to 0.5 µg/mL; in the assay with E. coli (IMP-4+), 4 µg/mL; with E. coli (VIM-2+) it was 0.5 µg/mL. For the same compound, the “survival rate at the endpoint of experiment” value in the assay on E. coli (NDM-1+) amounted to 50%. Besides, the “enzyme activity restored upon supplementation of Zn(II) to Bi-NDM-1” value on NDM-1 is listed as 25%. Further, the mutation frequency in the assay with E. coli cells (NDM+) (MER with CBS at 32, MIC multiple 0.5) was >5.22 × 10^−8; with E. coli cells (NDM+) (MER with CBS at 32, MIC multiple 1) it was 4.10 × 10^−8; in the assay on E. coli cells (NDM+) (MER with CBS at 32, MIC multiple 2), 3.28 × 10^−9; in the assay with E. coli cells (NDM+) (MER with CBS at 64, MIC multiple 0.5) it was 1.23 × 10^−8; in the assay on E. coli cells (NDM+) (MER with CBS at 64, MIC multiple 1) it was 1.15 × 10^−9; with E. coli cells (NDM+) (MER with CBS at 128, MIC multiple 0.5) it was 9.84 × 10^−10. In the assay on E. coli cells (NDM+) (MER with CBS at 256, MIC multiple 0.5), the mutation frequency is 1.31 × 10^−9.

These data come from patent publication US10624871B2, “Bismuth(III) compounds and methods thereof” (priority 2016, dated 2020).
